Test results reported in PubChem BioAssay AID330 (DTP/NCI, 2004).
Where “and” joins values, the source holds several entries; their conditions need not be identical. Equal entries are not always repeated. Toxic doses and inconclusive results are not listed.

System: P388 leukemia ip, CD2F1 mice, survival T/C
Test: NCI In Vivo Anticancer Drug Screen. Data for tumor model P388 Leukemia (intraperitoneal) in CD2F1 (CDF1) mice
Conditions: endpoint: median survival time, higher = longer survival
In short: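 Mice carrying the transplanted tumor received test compound or vehicle. Survival was recorded in each group, and the value is the treated-group measurement divided by that of the vehicle-treated control group.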

[1] = dose: 12.5 mg/kg/injection, schedule: Q01DX009 (ip), vehicle: distilled water + Tween-80
[2] = dose: 25.0 mg/kg/injection, schedule: Q01DX009 (ip), vehicle: distilled water + Tween-80
[3] = dose: 50.0 mg/kg/injection, schedule: Q01DX009 (ip), vehicle: distilled water + Tween-80
[4] = dose: 100.0 mg/kg/injection, schedule: Q01DX009 (ip), vehicle: distilled water + Tween-80
[5] = dose: 200.0 mg/kg/injection, schedule: Q01DX009 (ip), vehicle: distilled water + Tween-80
[6] = dose: 100.0 mg/kg/injection, schedule: Q01DX009 (ip), vehicle: saline with Tween-80
[7] = dose: 200.0 mg/kg/injection, schedule: Q01DX009 (ip), vehicle: saline with Tween-80
[8] = dose: 100.0 mg/kg/injection, schedule: Q01DX001 (ip), vehicle: Klucel (hydroxypropylcellulose) (HPC)
[9] = dose: 400.0 mg/kg/injection, schedule: Q01DX001 (ip), vehicle: Klucel (hydroxypropylcellulose) (HPC)
[10] = dose: 50.0 mg/kg/injection, schedule: Q01DX009 (ip), vehicle: Klucel (hydroxypropylcellulose) (HPC)
[11] = dose: 100.0 mg/kg/injection, schedule: Q01DX009 (ip), vehicle: Klucel (hydroxypropylcellulose) (HPC)
[12] = dose: 200.0 mg/kg/injection, schedule: Q01DX009 (ip), vehicle: Klucel (hydroxypropylcellulose) (HPC)
[13] = dose: 50.0 mg/kg/injection, schedule: Q01DX009 (ip), vehicle: saline with Tween-80
[14] = dose: 50.0 mg/kg/injection, schedule: Q01DX005 (ip), vehicle: saline with Tween-80
[15] = dose: 100.0 mg/kg/injection, schedule: Q01DX005 (ip), vehicle: saline with Tween-80
[16] = dose: 60.0 mg/kg/injection, schedule: Q01DX005 (ip), vehicle: saline with Tween-80
[17] = dose: 120.0 mg/kg/injection, schedule: Q01DX005 (ip), vehicle: saline with Tween-80
[18] = dose: 240.0 mg/kg/injection, schedule: Q01DX005 (ip), vehicle: saline with Tween-80
[19] = dose: 100.0 mg/kg/injection, schedule: Q04DX002 (ip), vehicle: saline with Tween-80
[20] = dose: 200.0 mg/kg/injection, schedule: Q04DX002 (ip), vehicle: saline with Tween-80
[21] = dose: 400.0 mg/kg/injection, schedule: Q04DX002 (ip), vehicle: saline with Tween-80

COC(=O)Cn1ccnc1[N+](=O)[O-]
T/C [1]: 100 % of control | T/C [2]: 93 % of control | T/C [3]: 93 % of control | T/C [4]: 93 % of control | T/C [5]: 90 % of control

Cc1c[n+]([O-])cc(=O)[nH]1
T/C [6]: 100 % of control | T/C [7]: 100 % of control | T/C (dose: 400.0 mg/kg/injection, schedule: Q01DX009 (ip), vehicle: saline with Tween-80): 100 % of control

CC1(C)CC(Nc2ccccc2)=CC(=Nc2ccccc2)S1
T/C (dose: 60.0 mg/kg/injection, schedule: Q01DX005 (ip), vehicle: Klucel (hydroxypropylcellulose) (HPC)): 110 % of control | T/C (dose: 120.0 mg/kg/injection, schedule: Q01DX005 (ip), vehicle: Klucel (hydroxypropylcellulose) (HPC)): 92 % of control | T/C (dose: 240.0 mg/kg/injection, schedule: Q01DX005 (ip), vehicle: Klucel (hydroxypropylcellulose) (HPC)): 89 % of control

CC(C)(C)NC(=O)C(Cl)Cl
T/C (dose: 50.0 mg/kg/injection, schedule: Q01DX001 (ip), vehicle: saline with Tween-80): 100 % of control | T/C (dose: 100.0 mg/kg/injection, schedule: Q01DX001 (ip), vehicle: saline with Tween-80): 100 % of control | T/C (dose: 200.0 mg/kg/injection, schedule: Q01DX001 (ip), vehicle: saline with Tween-80): 95 % of control

Cc1ccc(S(=O)(=O)C(=S)SCc2ccccc2)cc1
T/C (dose: 50.0 mg/kg/injection, schedule: Q01DX005 (ip), vehicle: Klucel (hydroxypropylcellulose) (HPC)): 106 % of control | T/C (dose: 100.0 mg/kg/injection, schedule: Q01DX005 (ip), vehicle: Klucel (hydroxypropylcellulose) (HPC)): 105 % of control | T/C (dose: 200.0 mg/kg/injection, schedule: Q01DX005 (ip), vehicle: Klucel (hydroxypropylcellulose) (HPC)): 96 % of control

C[CH2][Sn][CH2]C.O=C(CC(=O)c1ccccc1)c1ccccc1.O=C(CC(=O)c1ccccc1)c1ccccc1
T/C (dose: 12.5 mg/kg/injection, schedule: Q01DX001 (ip), vehicle: Klucel (hydroxypropylcellulose) (HPC)): 115 % of control | T/C (dose: 25.0 mg/kg/injection, schedule: Q01DX001 (ip), vehicle: Klucel (hydroxypropylcellulose) (HPC)): 111 % of control | T/C (dose: 50.0 mg/kg/injection, schedule: Q01DX001 (ip), vehicle: Klucel (hydroxypropylcellulose) (HPC)): 115 % of control | T/C [8]: 110 % of control | T/C [9]: 115 % of control

C#CC(C)OC (configuration not stated)
T/C (dose: 50.0 mg/kg/injection, schedule: Q01DX009 (ip), vehicle: saline): 96 % of control | T/C (dose: 100.0 mg/kg/injection, schedule: Q01DX009 (ip), vehicle: saline): 90 % of control | T/C (dose: 200.0 mg/kg/injection, schedule: Q01DX009 (ip), vehicle: saline): 86 % of control

O=C1NC(=O)C2(c3ccccc3)CCN1C2=O (configuration not stated)
T/C [10]: 103 % of control | T/C [11]: 110 % of control | T/C [12]: 104 % of control

O=C1CN(C2CC2N2CC(=O)NC(=O)C2)CC(=O)N1 (configuration not stated)
T/C (dose: 100.0 mg/kg/injection, schedule: Q04DX003 (ip), vehicle: saline with Tween-80): 97 % of control | T/C (dose: 200.0 mg/kg/injection, schedule: Q04DX003 (ip), vehicle: saline with Tween-80): 100 % of control | T/C (dose: 400.0 mg/kg/injection, schedule: Q04DX003 (ip), vehicle: saline with Tween-80): 100 % of control

C[C@@H]1C(=O)CC23COC(=O)C2=CCCC3[C@@]1(C)CCC1COC(=O)C1 (some centres not stated)
T/C (dose: 12.5 mg/kg/injection, schedule: Q01DX005 (ip), vehicle: distilled water + alcohol): 100 % of control | T/C (dose: 25.0 mg/kg/injection, schedule: Q01DX005 (ip), vehicle: distilled water + alcohol): 100 % of control | T/C (dose: 50.0 mg/kg/injection, schedule: Q01DX005 (ip), vehicle: distilled water + alcohol): 106 % of control | T/C (dose: 60.0 mg/kg/injection, schedule: Q01DX005 (ip), vehicle: distilled water + alcohol): 101 % of control | T/C (dose: 100.0 mg/kg/injection, schedule: Q01DX005 (ip), vehicle: distilled water + alcohol): 107 % of control | T/C (dose: 120.0 mg/kg/injection, schedule: Q01DX005 (ip), vehicle: distilled water + alcohol): 108 % of control | T/C (dose: 240.0 mg/kg/injection, schedule: Q01DX005 (ip), vehicle: distilled water + alcohol): 110 % of control

O=C(CSc1ncnc2nc[nH]c12)c1ccccc1
T/C [13]: 90 % of control | T/C [6]: 100 % of control | T/C [7]: 105 % of control

O=C1C(N=Nc2cc(Cl)ccc2Cl)C(O)N(c2ccc(Cl)cc2)C(=S)N1c1cccc(Cl)c1Cl (configuration not stated)
T/C (dose: 100.0 mg/kg/injection, schedule: Q04DX002 (ip), vehicle: Klucel (hydroxypropylcellulose) (HPC)): 100 % of control | T/C (dose: 200.0 mg/kg/injection, schedule: Q04DX002 (ip), vehicle: Klucel (hydroxypropylcellulose) (HPC)): 101 % of control | T/C (dose: 400.0 mg/kg/injection, schedule: Q04DX002 (ip), vehicle: Klucel (hydroxypropylcellulose) (HPC)): 99 % of control

O=c1[nH]c2ccc(Cl)cc2[nH]c1=O
T/C [14]: 99 % of control | T/C [15]: 100 % of control | T/C (dose: 200.0 mg/kg/injection, schedule: Q01DX005 (ip), vehicle: saline with Tween-80): 94 % of control

COC(=O)c1[nH]c(=O)c(C#N)c(C(=O)OC)c1-c1ccc(F)cc1
T/C [16]: 100 % of control | T/C [17]: 92 % of control | T/C [18]: 95 % of control

O=C1c2cccc3cc([N+](=O)[O-])cc(c23)C(=O)N1CCN1CCN(CCN2C(=O)c3cccc4cc([N+](=O)[O-])cc(c34)C2=O)CC1
T/C [19]: 95 % of control | T/C [20]: 98 % of control | T/C [21]: 90 % of control

Cn1c(=O)n(CCn2c(=O)n(C)c3ccccc32)c2ccccc21
T/C [8]: 91 % of control | T/C (dose: 200.0 mg/kg/injection, schedule: Q01DX001 (ip), vehicle: Klucel (hydroxypropylcellulose) (HPC)): 92 % of control | T/C [9]: 91 % of control

Cc1noc(NS(=O)(=O)c2ccc(N=c3c4ccccc4n(-c4ccccc4)c4ccccc34)cc2)c1C
T/C [14]: 97 % of control | T/C [15]: 100 % of control

CNC(=O)OCc1c(COC(=O)NC)c(-c2ccccc2)n(-c2ccccc2)c1C
T/C (dose: 12.5 mg/kg/injection, schedule: Q01DX005 (ip), vehicle: saline with Tween-80): 150 % of control | T/C (dose: 25.0 mg/kg/injection, schedule: Q01DX005 (ip), vehicle: saline with Tween-80): 169 % of control | T/C [14]: 157 % of control and 176 % of control | T/C [15]: 118 % of control

COC(=O)C1CC2C(=O)N(C)C=CC12 (configuration not stated)
T/C [19]: 104 % of control | T/C [20]: 98 % of control | T/C [21]: 102 % of control

COc1cc(/C=C/c2cccs2)oc(=O)c1
T/C [10]: 103 % of control | T/C [11]: 103 % of control | T/C [12]: 103 % of control

O=c1[nH][nH]c(=O)c2c1CCC2
T/C (dose: 6.25 mg/kg/injection, schedule: Q01DX009 (ip), vehicle: distilled water + Tween-80): 100 % of control | T/C [1]: 100 % of control | T/C [2]: 100 % of control | T/C [3]: 107 % of control | T/C [4]: 103 % of control | T/C [5]: 100 % of control

O=S(=O)(/N=C/c1ccccc1)c1ccc(Cl)cc1
T/C (dose: 12.5 mg/kg/injection, schedule: Q01DX009 (ip), vehicle: saline with Tween-80): 101 % of control | T/C (dose: 25.0 mg/kg/injection, schedule: Q01DX009 (ip), vehicle: saline with Tween-80): 101 % of control | T/C [13]: 95 % of control | T/C [6]: 96 % of control

FC(F)(F)c1ccccc1Nc1nnc(-c2ccc(Cl)cc2Cl)o1
T/C [16]: 100 % of control | T/C [17]: 96 % of control | T/C [18]: 87 % of control

Clc1ccc(CN2COc3c(cc(Cl)c4cccnc34)C2)cc1
T/C (dose: 100.0 mg/kg/injection, schedule: Q04DX003 (ip), vehicle: Klucel (hydroxypropylcellulose) (HPC)): 88 % of control | T/C (dose: 200.0 mg/kg/injection, schedule: Q04DX003 (ip), vehicle: Klucel (hydroxypropylcellulose) (HPC)): 91 % of control | T/C (dose: 400.0 mg/kg/injection, schedule: Q04DX003 (ip), vehicle: Klucel (hydroxypropylcellulose) (HPC)): 106 % of control

O=C1CCC(Cc2ccccc2Br)C(=O)N1 (configuration not stated)
T/C [16]: 99 % of control | T/C [17]: 107 % of control | T/C [18]: 102 % of control
